Source: patent publication US11642344B2, “Cholesteryl ester transfer protein (CETP) inhibitor and pharmaceutical compositions comprising said inhibitor for use in the treatment or prevention of cardiovascular diseases” (NewAmsterdam Pharma B.V., priority 2014, dated 2023)

Legend:
CETP [1] = experiment: Ex vivo serum CETP activity after oral administration to hamsters; parameters: species or system Syrian Golden hamsters; conditions: 3 mg/kg oral, suspension in 0.5% CMC, serum 3 hours after administration
Description: Syrian Golden hamsters were used for the experiment after 1-week acclimatization. After an overnight fast, animals were orally given the compound suspension in 0.5% sodium carboxymethylcellulose in a volume of 10 mL/kg. Under deep anesthesia with ether, blood was collected from the abdominal aorta 3 hours after the administration. For preparation of serum, the collected blood was transferred to a plastic tube containing a clot activator, left still for 15 minutes at room temperature and centrifuged. Serum CETP activities were determined immediately.
Ninety-five μL serum were added to 5 μL of […] sodium phosphate buffered saline (pH 7.0) containing 1.5 mM 5,5′-dithio-bis(2-nitrobenzoic acid) in two 96-well V-bottom plates. One plate was incubated at 4° C. and the other was incubated at 37° C. After 18 hours of incubation, each sample was mixed with 100 μL of reagent for precipitation of apolipoprotein B-containing lipoproteins (phosphotungstate/MgCl2 reagent, Wako pure chemical), left still for 10 minutes at room temperature and centrifuged. Total cholesterol (TC) and free cholesterol (FC) in supernatant were measured using commercial kits (Cholesterol E-test wako, and Free Cholesterol E-test wako; Wako pure chemical). Cholesteryl ester (CE) was calculated by subtracting FC from TC. CETP activity was determined by the following formula: CETP activity=[CETP transfer]*/[CE value in 4° C. incubation sample] *CETP transfer=[CE value in 4° C. incubation sample]−[CE value in 37° C. incubation sample] (c) Results

CETP [2] = experiment: Clinical repeated dose study: plasma CETP concentration (ELISA); assay type: in vivo, human; conditions: for Maximum % change from baseline in CETP concentration: repeated oral doses, steady state, mean
Description: (§1) The clinical study was a repeated dose study in 5 groups of Caucasian male subjects aged 18 to 55 years. Each subject received a single oral dose of Compound A/placebo on Day 1, followed by once daily doses on Days 8 to 35 (5 mg Compound A/placebo—Group 1) or Days 8 to 28 (1, 2.5, 10 and 25 mg Compound A/placebo—Groups 2 to 5). All doses were administered at the study center after a standard breakfast. Subjects in each dose group were allocated to study treatment in a ratio of 10 Compound A to 2 placebo. Blood samples for pharmacokinetic and pharmacodynamic (CETP activity, CETP concentration, HDL-C, LDL-C, total cholesterol, triglycerides) assessments were collected from prior to each dose and at intervals throughout the study until 336 hours after the last dose. Secondary pharmacodynamic endpoints (including apolipoproteins A1, A2, B, and E, HDL2-C, HDL3-C, phospholipids, HDL-free cholesterol [HDL-FC], HDL-cholesteryl ester [HDL-CE], HDL-phospholipids [HDL-PL], HDL-triglycerides [HDL-TG], and LDL particle size) were measured at intervals until the last day of dosing. Urine was collected for pharmacokinetics from pre dose and at intervals up to 72 hours after the first and last dose. Safety assessments including adverse events, blood pressure and pulse rate, ECGs, laboratory safety tests (including aldosterone) and physical examinations were conducted throughout both studies.
(§2) Plasma and urine concentrations of Compound A were determined using validated liquid chromatography with tandem mass spectrometry (LC/MS/MS) methods. The lower limit of quantification (LLQ) for both assays was 0.500 ng/mL. Plasma concentration of CETP was determined using a validated enzyme-linked immunosorbent assay (ELISA) method with a lower limit of quantification (LLQ) of 0.500 μg/mL. CETP activity was determined as the rate of [^3H]-labeled CE transfer from donor HDL to acceptor VLDL/LDL. [^3H]CE-labeled HDL was added to human plasma and incubated for 4 hours at 37° C. Non-HDL lipoproteins were precipitated and separated from HDL, and the amount of radioactivity in the supernatant was quantitated. CETP activity was determined as the difference of the radioactivity between the samples incubated at 37° C. and 4° C. HDL-C and LDL-C were measured by homogenous enzymatic colorimetric assay using a Modular analyser (Roche Diagnostics). Total cholesterol and triglycerides were measured by homogenous enzymatic assay using a Modular analyser (cholesterol oxidase peroxidase-peroxidase aminophenazone phenol [CHOP-PAP]) method and a glycerol phosphate oxidase [GPO-PAP] method, respectively. ApoA1, ApoA2, ApoB and ApoE were measured by immunoturbidimetry using reagents from Rolf Greiner Biochemica (Germany) and N-apoprotein standard serum from Siemens (Germany). LDL particle size was determined by gradient gel electrophoresis. HDL fraction was separated by a combined ultracentrifugation-precipitation method (Beta-quantification). HDL-2 and HDL-3 fractions were then separated by further ultracentrifugation. Total-cholesterol in HDL, HDL-2 and HLD-3 fractions, free cholesterol in HDL fraction, triglycerides in HDL fraction and phospholipids in plasma and HDL-fraction were measured using enzymatic methods and reagents from Diasys Diagnostics (Germany). The measurements were performed on an Olympus AU600 automatic analyzer and were calibrated using secondary standards from Roche Diagnostics (Total-cholesterol, triglycerides) and Diasys Diagnostics (free cholesterol, phospholipids), respectively. Esterified cholesterol was calculated as the difference between total-cholesterol and free cholesterol.
(§3) The sample sizes for the study were chosen based on practical considerations rather than statistical power. The numbers of subjects in each group were considered to be adequate to assess the main objectives of each study. Subjects were allocated to Compound A or placebo in each group by means of a computer-generated randomization code. […]

[3] = Clinical repeated dose study: safety assessments; assay type: in vivo, human; conditions: repeated doses up 25 mg once daily
Description: as §1

CETP [4] = molecular target: T1, CETP (Homo sapiens, UniProt P11597); experiment: Clinical repeated dose study: plasma CETP activity; assay type: in vivo; conditions: for Maximum % change from baseline in CETP activity: repeated oral doses, steady state, mean
T1 construct: from tissue; host or cells: plasma of Caucasian male subjects dosed with Compound A or placebo
T1 sequence (P11597 18-493): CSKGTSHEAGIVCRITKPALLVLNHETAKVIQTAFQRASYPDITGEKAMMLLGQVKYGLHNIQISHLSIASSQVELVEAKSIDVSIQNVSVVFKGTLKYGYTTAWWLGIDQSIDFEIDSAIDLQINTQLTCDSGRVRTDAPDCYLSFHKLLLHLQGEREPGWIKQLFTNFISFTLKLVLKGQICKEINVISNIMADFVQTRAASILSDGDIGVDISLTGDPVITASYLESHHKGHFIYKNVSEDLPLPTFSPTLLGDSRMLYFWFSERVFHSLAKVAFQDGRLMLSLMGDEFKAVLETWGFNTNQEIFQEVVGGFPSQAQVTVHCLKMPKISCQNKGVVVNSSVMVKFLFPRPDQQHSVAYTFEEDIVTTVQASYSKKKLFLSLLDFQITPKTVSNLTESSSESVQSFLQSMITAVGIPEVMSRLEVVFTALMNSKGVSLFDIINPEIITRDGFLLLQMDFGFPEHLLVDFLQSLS
Description: as §1, §2, §3

CCOC(=O)N1c2ccc(C(F)(F)F)cc2[C@@H](N(Cc2cc(C(F)(F)F)cc(C(F)(F)F)c2)c2ncc(OCCCC(=O)O)cn2)C[C@H]1CC [Compound A, {4-[(2-{[3,5-bis(trifluoromethyl)benzyl][(2R,4S)-1-(ethoxycarbonyl)-2-ethyl-6-(trifluoromethyl)-1,2,3,4-tetrahydroquinolin-4-yl]amino}pyrimidin-5-yl)oxy]butanoic acid}]
ex vivo (% inhibition) 3 mg/kg (CMC) (CETP [1]): 79.2%
Maximum % change from baseline in CETP concentration (CETP [2]; 1 mg once daily): 128%
Maximum % change from baseline in CETP concentration (CETP [2]; 2.5 mg once daily): 144%
Maximum % change from baseline in CETP concentration (CETP [2]; 5 mg once daily): 215%
Maximum % change from baseline in CETP concentration (CETP [2]; 10 mg once daily): 249%
Maximum % change from baseline in CETP concentration (CETP [2]; 25 mg once daily): 280%
CETP concentration higher than baseline after cessation of dosing (CETP [2]; 2 weeks following 10 mg and 25 mg): approximately 1.4 fold
CETP concentration after cessation of dosing (in words) (CETP [2]; within 2 weeks following 1 mg and 5 mg): approaching baseline values
effect on serum electrolyte or aldosterone concentrations [3]: no effect
effects on blood pressure or heart rate, ECG variables, physical examination or laboratory safety tests [3]: no clinically significant effects
serious adverse events [3]: no serious adverse events
tolerability [3]: well tolerated
Maximum % change from baseline in CETP activity (CETP [4]; 1 mg once daily, Caucasian male healthy subjects): −66.5%
Maximum % change from baseline in CETP activity (CETP [4]; 2.5 mg once daily): −91.6%
Maximum % change from baseline in CETP activity (CETP [4]; 5 mg once daily): −90.9%
Maximum % change from baseline in CETP activity (CETP [4]; 10 mg once daily): −97.6%
Maximum % change from baseline in CETP activity (CETP [4]; 25 mg once daily): −99.4%
CETP activity below baseline after last dose (CETP [4]; 2 weeks following 10 and 25 mg dosing): approximately 50%
CETP activity after the last dose (in words) (CETP [4]; by 2 weeks following the lowest dose (1 mg)): approaching baseline levels
time to maximum effect on CETP inhibition (CETP [4]; once daily dosing, each dose): ≤ 1 week
CETP inhibition (in words) (CETP [4]; repeated once daily dosages as low as 2.5 mg): near complete CETP-inhibition
